Activity calls are given as the source filed them.
Key:
Ephrin type-A receptor 4 = Ephrin type-A receptor 4 (Mus musculus, UniProt Q03137); test: EphA4 ligand-binding antagonists – biochemical, colorimetric, mouse EphA4, primary screen (AID 689); assay type: functional
Protein skinhead-1 = biological target: T1, Protein skinhead-1 (Caenorhabditis elegans, UniProt P34707); assay type: functional
T1 sequence (P34707 whole entry): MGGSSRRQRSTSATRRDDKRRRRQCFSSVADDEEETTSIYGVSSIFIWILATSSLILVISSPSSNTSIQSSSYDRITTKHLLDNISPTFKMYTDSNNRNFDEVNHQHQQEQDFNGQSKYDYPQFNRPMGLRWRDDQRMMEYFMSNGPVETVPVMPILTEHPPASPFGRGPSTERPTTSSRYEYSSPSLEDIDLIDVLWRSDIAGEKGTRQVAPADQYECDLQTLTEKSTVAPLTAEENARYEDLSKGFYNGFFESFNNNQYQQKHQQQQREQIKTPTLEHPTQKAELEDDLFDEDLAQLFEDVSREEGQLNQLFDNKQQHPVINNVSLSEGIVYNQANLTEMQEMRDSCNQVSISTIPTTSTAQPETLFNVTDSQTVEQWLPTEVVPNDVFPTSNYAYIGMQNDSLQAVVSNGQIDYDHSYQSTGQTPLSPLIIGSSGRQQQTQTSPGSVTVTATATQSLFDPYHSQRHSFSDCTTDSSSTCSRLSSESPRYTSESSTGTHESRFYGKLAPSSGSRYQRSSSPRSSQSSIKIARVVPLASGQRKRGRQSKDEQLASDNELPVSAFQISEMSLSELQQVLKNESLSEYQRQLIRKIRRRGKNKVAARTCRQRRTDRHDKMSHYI

Cytochrome P450 2D6 = Cytochrome P450 2D6 (Homo sapiens, UniProt P10635);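 note: CYP2D6 member of a cytochrome P450 panel assay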
Cytochrome P450 2D6, sequence (P10635 whole entry): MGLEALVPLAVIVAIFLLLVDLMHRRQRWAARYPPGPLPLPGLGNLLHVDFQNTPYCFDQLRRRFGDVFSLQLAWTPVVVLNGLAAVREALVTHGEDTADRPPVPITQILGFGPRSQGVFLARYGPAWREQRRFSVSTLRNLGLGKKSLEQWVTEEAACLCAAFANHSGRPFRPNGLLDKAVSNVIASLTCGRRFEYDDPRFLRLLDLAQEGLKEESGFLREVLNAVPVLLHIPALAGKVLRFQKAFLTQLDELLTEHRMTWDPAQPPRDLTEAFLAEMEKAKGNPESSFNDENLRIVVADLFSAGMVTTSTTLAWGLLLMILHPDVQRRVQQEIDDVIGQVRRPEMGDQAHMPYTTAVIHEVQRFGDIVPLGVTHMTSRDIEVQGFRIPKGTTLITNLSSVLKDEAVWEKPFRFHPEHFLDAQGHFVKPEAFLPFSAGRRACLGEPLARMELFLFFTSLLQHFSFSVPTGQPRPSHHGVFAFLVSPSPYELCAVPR

[1] = biological target: G-protein coupled receptor 55 (Homo sapiens, UniProt Q9Y2T6); test: inhibition of LPI-stimulated GPR55 beta-arrestin translocation – imaging, U2OS, beta-arrestin-GFP, LPI agonist, primary screen (AID 2013); assay type: functional;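 note: antagonist potency measured as reduced agonist-driven arrestin aggregation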
G-protein coupled receptor 55, sequence (Q9Y2T6 whole entry): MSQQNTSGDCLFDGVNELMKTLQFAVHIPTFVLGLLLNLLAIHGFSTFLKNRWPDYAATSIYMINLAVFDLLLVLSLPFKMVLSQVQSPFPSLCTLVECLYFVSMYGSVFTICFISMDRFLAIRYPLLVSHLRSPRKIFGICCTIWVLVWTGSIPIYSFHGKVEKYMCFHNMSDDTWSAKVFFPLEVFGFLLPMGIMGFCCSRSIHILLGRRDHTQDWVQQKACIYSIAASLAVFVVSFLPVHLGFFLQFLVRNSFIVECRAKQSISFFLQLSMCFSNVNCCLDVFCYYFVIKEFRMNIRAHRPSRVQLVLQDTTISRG

[2] = biological target: Eukaryotic translation initiation factor 4E (Mus musculus, UniProt P63073); test: blockers of eIF4G binding by eIF4E – biochemical, TR-FRET, dose response (AID 855); assay type: functional;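 note: potency for disrupting eIF4E binding to eIF4GI seen as loss of FRET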
Eukaryotic translation initiation factor 4E, sequence (P63073 whole entry): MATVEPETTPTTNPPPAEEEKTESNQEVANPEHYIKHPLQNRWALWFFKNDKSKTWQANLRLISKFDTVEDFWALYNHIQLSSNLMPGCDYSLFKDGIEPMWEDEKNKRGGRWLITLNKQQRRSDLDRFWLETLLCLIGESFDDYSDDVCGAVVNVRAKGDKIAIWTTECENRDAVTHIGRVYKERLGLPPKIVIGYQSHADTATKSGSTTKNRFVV

[3] = HPDE-C7 pancreatic duct cell viability loss – fluorescence, HTS (AID 430); assay type: functional, cell-based; conditions: Homo sapiens
[4] = viability loss of HPDE-C7K cells – cell-based, fluorescence, HTS, primary screen (AID 431); assay type: functional; conditions: Homo sapiens
Prothrombin = Prothrombin (Homo sapiens, UniProt P00734); test: Thrombin 1536 HTS Dose Response Confirmation. [Related pubchem assays: 1046 (Thrombin 1536 HTS; hits were confirmed in this assay)]; assay type: functional
[5] = biological target: T2, Corticotropin-releasing factor receptor 2/Corticotropin-releasing factor-binding protein (Homo sapiens, UniProt P24387+Q13324); test: activators of CRF receptor 2 with binding protein – uHTS hits, confirmation (AID 602473); assay type: functional; conditions: read-out: EC50_Mean
T2 sequence (Q13324 whole entry): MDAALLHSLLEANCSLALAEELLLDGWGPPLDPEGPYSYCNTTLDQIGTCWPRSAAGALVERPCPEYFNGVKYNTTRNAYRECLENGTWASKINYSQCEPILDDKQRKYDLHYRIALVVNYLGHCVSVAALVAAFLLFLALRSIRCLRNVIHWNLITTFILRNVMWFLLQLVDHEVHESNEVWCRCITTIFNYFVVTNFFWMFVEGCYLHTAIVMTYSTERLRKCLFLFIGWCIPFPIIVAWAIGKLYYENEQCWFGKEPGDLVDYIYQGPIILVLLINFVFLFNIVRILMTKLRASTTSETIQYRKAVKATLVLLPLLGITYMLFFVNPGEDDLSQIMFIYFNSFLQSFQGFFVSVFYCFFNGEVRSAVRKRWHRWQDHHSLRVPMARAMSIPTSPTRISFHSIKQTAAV
T2 sequence (P24387 whole entry): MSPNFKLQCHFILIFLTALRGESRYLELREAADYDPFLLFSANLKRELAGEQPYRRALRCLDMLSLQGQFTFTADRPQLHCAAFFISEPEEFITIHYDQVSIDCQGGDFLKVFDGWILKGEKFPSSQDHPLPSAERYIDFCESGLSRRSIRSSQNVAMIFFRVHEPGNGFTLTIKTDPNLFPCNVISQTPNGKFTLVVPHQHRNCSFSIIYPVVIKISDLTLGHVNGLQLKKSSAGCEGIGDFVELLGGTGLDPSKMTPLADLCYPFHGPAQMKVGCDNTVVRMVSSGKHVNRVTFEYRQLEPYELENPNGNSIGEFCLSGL

[6] = biological target: T3, E3 ubiquitin-protein ligase XIAP (Homo sapiens, UniProt P98170); test: Counter Screen using XIAP-Bir3 for Chemical Antagonists of Bir1/2 domains of IAP-family anti-apoptotic proteins. [Related pubchem assays (depositor defined):AID1018, AID1449, AID1514, AID1638, AID1749, AID1750, AID488957, AID488963]
T3 sequence (P98170 whole entry): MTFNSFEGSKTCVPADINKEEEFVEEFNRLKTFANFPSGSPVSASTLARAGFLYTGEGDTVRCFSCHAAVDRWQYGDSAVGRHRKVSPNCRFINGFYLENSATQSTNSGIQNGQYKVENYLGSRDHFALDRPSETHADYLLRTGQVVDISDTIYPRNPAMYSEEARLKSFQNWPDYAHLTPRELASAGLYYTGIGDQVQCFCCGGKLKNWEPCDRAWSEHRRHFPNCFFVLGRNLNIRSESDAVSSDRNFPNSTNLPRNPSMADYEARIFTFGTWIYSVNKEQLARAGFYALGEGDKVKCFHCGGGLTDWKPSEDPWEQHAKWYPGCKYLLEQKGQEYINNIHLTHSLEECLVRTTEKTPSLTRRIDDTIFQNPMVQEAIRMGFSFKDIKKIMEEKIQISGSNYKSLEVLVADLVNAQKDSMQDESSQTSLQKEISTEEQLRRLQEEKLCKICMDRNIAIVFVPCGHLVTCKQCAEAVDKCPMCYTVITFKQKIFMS

[7] = biological target: T3, E3 ubiquitin-protein ligase XIAP; test: small molecules displacing peptide from XIAP – biochemical, IAP family, fluorescence polarization (AID 1018); assay type: functional
H9c2 = test: cells; assay type: functional, cell-based; conditions: Rattus norvegicus, H9c2, Myocardium;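 note: confirmatory concentration-response retest of ultra-high-throughput screening hits for modulation of myocardial damage; cell death induced by hydrogen peroxide oxidative stress; compound pretreatment for 60 min then peroxide exposure for 2 h; potency is for protecting the cells against peroxide damage rather than for killing them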
[8] = Luminescence Cell-Based Dose Retest to Confirm Inhibitors of Cancer Stem Cells. [Related pubchem assays (depositor defined):AID2717, AID2721]; assay type: functional; conditions: Homo sapiens
[9] = Trypanosoma cruzi growth suppression in host cells – NIH3T3 host cells, beta-gal luminescence, confirmation (AID 2044); assay type: functional, cell-based;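 note: intracellular parasites grown in NIH/3T3 mouse fibroblasts as host cells; luminescent beta-galactosidase reporter signal from transgenic T. cruzi replicating inside host cells; inhibitors lower the luminescence signal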
[10] = NIH3T3 cell viability loss – ATP luminescence, mouse fibroblasts, counter-screen, dose response (AID 2010); assay type: functional, cell-based;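 note: cells exposed to compound for about 90 hours before reading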
[11] = biological target: Induced myeloid leukemia cell differentiation protein Mcl-1 (Homo sapiens, UniProt Q07820); assay type: functional
Induced myeloid leukemia cell differentiation protein Mcl-1, sequence (Q07820 whole entry): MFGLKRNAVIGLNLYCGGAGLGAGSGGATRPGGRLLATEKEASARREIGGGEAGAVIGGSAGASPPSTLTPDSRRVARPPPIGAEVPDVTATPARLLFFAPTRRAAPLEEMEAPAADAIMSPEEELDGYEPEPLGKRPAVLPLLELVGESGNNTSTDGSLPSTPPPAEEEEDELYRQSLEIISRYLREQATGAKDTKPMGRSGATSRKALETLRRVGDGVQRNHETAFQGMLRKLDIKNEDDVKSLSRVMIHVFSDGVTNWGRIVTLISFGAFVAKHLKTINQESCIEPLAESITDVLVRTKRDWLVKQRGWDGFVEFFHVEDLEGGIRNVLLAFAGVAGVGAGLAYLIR

Genome polyprotein = Genome polyprotein (dengue virus type 2, UniProt P29990); test: flavivirus cap methylation enzyme inhibition – biochemical, confirmation dose response, primary screen (AID 588689); assay type: functional
Genome polyprotein, sequence (P29990 2492-3391 limits assumed): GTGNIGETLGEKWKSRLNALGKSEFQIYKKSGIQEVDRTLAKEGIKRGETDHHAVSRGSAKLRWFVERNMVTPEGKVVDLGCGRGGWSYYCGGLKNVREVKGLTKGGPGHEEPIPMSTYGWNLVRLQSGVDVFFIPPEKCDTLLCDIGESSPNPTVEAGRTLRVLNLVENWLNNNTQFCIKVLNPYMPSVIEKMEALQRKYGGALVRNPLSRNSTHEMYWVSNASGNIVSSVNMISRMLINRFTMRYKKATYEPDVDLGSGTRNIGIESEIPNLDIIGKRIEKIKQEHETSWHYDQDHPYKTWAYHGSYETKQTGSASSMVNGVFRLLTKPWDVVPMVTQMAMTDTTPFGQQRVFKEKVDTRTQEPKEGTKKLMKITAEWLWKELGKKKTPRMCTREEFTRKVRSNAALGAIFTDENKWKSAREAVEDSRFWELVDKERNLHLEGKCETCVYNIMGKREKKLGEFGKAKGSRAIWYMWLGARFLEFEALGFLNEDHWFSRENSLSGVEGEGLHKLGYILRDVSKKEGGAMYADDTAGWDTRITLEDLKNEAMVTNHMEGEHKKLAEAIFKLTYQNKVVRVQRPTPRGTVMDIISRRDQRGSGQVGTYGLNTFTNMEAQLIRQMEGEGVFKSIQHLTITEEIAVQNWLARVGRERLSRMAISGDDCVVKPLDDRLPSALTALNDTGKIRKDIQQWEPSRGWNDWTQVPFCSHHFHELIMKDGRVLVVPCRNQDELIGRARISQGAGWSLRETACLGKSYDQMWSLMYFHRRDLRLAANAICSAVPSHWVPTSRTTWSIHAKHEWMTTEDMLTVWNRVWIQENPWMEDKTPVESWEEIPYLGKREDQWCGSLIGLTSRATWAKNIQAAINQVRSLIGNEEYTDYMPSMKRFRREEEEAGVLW

[12] = THP-1 cell cytotoxicity, dose response, cytotoxicity control for non-replicating M. tuberculosis project (AID 489025); assay type: functional
cells [13] = assay type: functional
[14] = Luminescence Cell-Based Dose Confirmation HTS to Identify Activators of 5'UTR Stem-Loop Driven Alpha-Synuclein mRNA Translation in H4 Neuroglioblastoma Cells. [Related pubchem assays: 1829 (Project Summary), 1814 (Primary HTS)]; assay type: functional
[15] = Luminescence Cell-Based Dose Response HTS to Identify Activators of Luciferase Translation or Activity in H4 […] Cells. [Related pubchem assays: 1829 (Project Summary), 1814 (Primary HTS)]; assay type: functional
H4 = test: Luminescence Cell-Based Dose Response HTS to Identify Activators of 5'UTR Stem-Loop Driven Prion Protein mRNA Translation in H4 Neuroglioblastoma Cells. [Related pubchem assays: 1829 (Project Summary), 1814 (Primary HTS)]; assay type: functional; conditions: Homo sapiens
[16] = HEK-293T viability loss after treatment – luminescence, T-cell screen hits, cytotoxicity control for TCR NF-kB inhibitor project, dose response (AID 489026); assay type: functional, cell-based;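 note: cells exposed to compound about 14 hours before the viability readout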
INS1 = test: INS-1E survival protection against cytokine death – cell-based, luminescence, retest, dose response (AID 449756); assay type: functional; conditions: Rattus norvegicus;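 note: cell death triggered by IL-1 beta plus TNF-alpha plus IFN-gamma mixture; protective hits raise ATP signal compared with cytokine alone wells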
HEK293 [17] = test: inhibition of NOD1-driven NF-kB reporter – cell-based, luminescence, uHTS, primary screen (AID 1578); assay type: functional; conditions: Homo sapiens
HEK293 [18] = test: cells; assay type: functional, cell-based; conditions: Homo sapiens
HEK293 [19] = test: cells; assay type: functional, cell-based; conditions: Homo sapiens; remark: listed apart in the source
[20] = biological target: T4, Short transient receptor potential channel 4 (Mus musculus, UniProt Q9QUQ5); test: calcium entry via TRPC4 opening agents – cell-based, HEK293 TRPC4/mu-opioid, Fluo-4 calcium, dose response (AID 434937); assay type: functional
T4 sequence (Q9QUQ5 whole entry): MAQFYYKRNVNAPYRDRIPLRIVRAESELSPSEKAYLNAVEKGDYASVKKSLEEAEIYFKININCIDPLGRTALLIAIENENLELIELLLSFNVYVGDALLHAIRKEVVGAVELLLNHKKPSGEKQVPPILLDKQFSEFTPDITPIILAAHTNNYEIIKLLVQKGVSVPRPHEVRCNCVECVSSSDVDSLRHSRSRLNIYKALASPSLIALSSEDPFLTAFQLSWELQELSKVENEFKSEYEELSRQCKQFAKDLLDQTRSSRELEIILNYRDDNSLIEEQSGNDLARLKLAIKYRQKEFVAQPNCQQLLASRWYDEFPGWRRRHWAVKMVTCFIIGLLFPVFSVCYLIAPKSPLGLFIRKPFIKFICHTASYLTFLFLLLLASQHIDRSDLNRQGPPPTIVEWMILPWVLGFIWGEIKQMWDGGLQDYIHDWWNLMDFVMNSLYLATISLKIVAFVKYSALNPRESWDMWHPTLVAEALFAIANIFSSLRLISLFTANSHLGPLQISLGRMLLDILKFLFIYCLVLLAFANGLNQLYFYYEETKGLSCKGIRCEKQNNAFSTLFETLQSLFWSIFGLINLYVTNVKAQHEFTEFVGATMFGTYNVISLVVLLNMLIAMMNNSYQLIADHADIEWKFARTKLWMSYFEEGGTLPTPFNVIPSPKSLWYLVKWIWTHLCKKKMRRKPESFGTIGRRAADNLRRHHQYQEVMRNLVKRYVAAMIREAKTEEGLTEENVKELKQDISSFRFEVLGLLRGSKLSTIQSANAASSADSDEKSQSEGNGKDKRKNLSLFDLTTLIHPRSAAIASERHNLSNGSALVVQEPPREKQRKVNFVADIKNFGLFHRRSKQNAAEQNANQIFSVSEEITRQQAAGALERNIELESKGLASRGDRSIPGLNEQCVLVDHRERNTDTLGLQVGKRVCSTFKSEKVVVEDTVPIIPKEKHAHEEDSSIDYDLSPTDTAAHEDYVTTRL

cells [21] = test: cells

Ephrin type-A receptor 4, sequence (Q03137 whole entry): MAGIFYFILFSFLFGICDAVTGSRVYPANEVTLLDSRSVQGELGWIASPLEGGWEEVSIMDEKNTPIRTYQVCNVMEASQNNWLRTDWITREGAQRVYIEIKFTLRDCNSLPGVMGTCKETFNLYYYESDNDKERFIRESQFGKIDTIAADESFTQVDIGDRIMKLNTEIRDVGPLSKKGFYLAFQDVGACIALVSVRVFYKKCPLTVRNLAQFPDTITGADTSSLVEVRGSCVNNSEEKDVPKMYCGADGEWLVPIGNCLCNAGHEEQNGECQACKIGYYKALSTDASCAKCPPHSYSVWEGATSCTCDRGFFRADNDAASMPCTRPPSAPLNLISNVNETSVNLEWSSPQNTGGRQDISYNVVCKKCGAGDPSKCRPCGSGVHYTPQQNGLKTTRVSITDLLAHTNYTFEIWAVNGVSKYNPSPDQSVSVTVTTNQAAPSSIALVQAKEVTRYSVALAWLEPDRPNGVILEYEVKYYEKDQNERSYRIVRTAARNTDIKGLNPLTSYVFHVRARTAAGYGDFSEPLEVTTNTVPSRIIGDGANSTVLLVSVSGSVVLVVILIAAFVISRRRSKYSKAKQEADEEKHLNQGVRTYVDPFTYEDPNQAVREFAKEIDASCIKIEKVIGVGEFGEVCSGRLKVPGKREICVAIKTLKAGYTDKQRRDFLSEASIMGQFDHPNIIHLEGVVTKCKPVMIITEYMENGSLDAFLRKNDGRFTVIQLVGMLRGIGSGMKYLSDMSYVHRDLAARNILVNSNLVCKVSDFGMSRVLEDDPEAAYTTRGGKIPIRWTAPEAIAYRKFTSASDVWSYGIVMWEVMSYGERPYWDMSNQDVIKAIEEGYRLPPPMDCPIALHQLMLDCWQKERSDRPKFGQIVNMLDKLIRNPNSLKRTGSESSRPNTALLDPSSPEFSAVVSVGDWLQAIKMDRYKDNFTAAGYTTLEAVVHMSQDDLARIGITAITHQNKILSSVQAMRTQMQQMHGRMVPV

SMILES: CCOc1ccc(/C=C/C2=Cc3c(sc(NC(=O)CSc4nnc(N)[nH]4)c3C#N)C(C)(C)C2)cc1
- IC50 (Ephrin type-A receptor 4): 1.79 µM (active)
- IC50 (Protein skinhead-1): 60.8 µM (inactive)
- AC50 (Cytochrome P450 2D6): 1.78 µM (inconclusive)

SMILES: Cc1[nH]c2c(Br)cccc2c1[C@H]1[C@@H](CC#N)C1(C)C
- IC50 [1]: 1.49 µM (active)

SMILES: CCOc1ccccc1NC(=O)C1CCN(S(=O)(=O)c2cccc3cccnc23)CC1
- IC50 [2]: > 64 µM (inactive)

SMILES: COc1ccc(NC(=O)c2cc(-c3cc(C)ccc3O)[nH]n2)cc1Cl
- EC50 [3]: > 20 µM (not active)
- EC50 [4]: > 20 µM (not active)

SMILES: O=C(c1cccc([N+](=O)[O-])c1)n1nc(-c2ccccc2)nc1NCc1ccccc1
- IC50 (Prothrombin): 0.521 µM (active)

SMILES: Cc1ccc(-c2noc(CN3CCC(C(N)=O)CC3)n2)cc1
- IC50 (Prothrombin): > 50 µM (not active)
- EC50 [5]: > 53 µM (inactive)

SMILES: N#Cc1sc2nc(-c3cccs3)cc(-c3ccccc3)c2c1N
- IC50 (Ephrin type-A receptor 4): > 100 µM (not active)

SMILES: Fc1cccc(COc2ccccc2CNc2ccccc2)c1
- IC50 [6]: > 100 µM (inactive)
- IC50 [7]: > 100 µM (not active)

SMILES: CCC(=O)N1CCN(c2ccc(NC(=O)c3cc4ccccc4o3)cc2Cl)CC1
- EC50 [3]: 11.5 µM (active)
- EC50 [4]: 10.9 µM (active)
- IC50 (H9c2): 15.9 µM (active)
- IC50 (Protein skinhead-1): > 100 µM (inactive)

SMILES: Cc1nnc(=O)[nH]c1NCc1ccco1
- IC50 [2]: > 64 µM (inactive)

SMILES: O=C1CC(=C(c2ccccc2)c2ccccc2)C(=O)N1CCCCN1CCN(c2cccc(Cl)c2)CC1
- IC50 [6]: > 100 µM (inactive)
- IC50 [7]: > 100 µM (not active)
- AC50 [8]: 0.624 µM (active)

SMILES: Cc1ccc(O)c(NC2=C(Cl)C(=O)N(Cc3ccccc3)C2=O)c1
- EC50 [9]: 4.37 µM (active)
- EC50 [10]: > 60 µM (inconclusive)
- IC50 [11]: 3.01 µM (not active)
- IC50 [2]: 50 µM (inactive)
- IC50 (Genome polyprotein): > 100 µM (active)

SMILES: Fc1ccc(-c2cc3nc4c(c(N5CCOCC5)n3n2)CCCC4)cc1
- IC50 (Ephrin type-A receptor 4): > 100 µM (not active)

SMILES: O=C(NCc1nnc(S)n1-c1ccc(F)cc1)c1ccco1
- IC50 [6]: > 100 µM (inactive)
- IC50 [7]: > 100 µM (not active)

SMILES: COc1ccc(S(=O)(=O)CCc2nnc(NC(=O)c3cccs3)s2)cc1
- IC50 (Prothrombin): > 50 µM (not active)

SMILES: CC(C)(C)c1ccccc1OCCOCCN1CCCCCC1
- EC50 [9]: 0.651 µM (active)
- EC50 [10]: > 60 µM (inconclusive)
- CC50 [12]: 27.6 µM (active)
- IC50 (cells [13]): > 50 µM (active)

SMILES: O=C1/C(=C/c2ccc(N3CCOCC3)o2)S/C(=N\c2ccccc2)N1CCc1c[nH]c2ccccc12
- EC50 [14]: 13 µM (active)
- EC50 [15]: > 120 µM (not active)
- EC50 (H4): > 120 µM (not active)
- IC50 [16]: > 80 µM (inactive)
- AC50 (INS1): 17.2 µM (active)

SMILES: CCOc1ccc(NC(=O)c2ccc(CNc3c(N4CCCC4)c(=O)c3=O)cc2)cc1
- IC50 (Prothrombin): > 50 µM (not active)

SMILES: CCCC[n+]1c(C=C2C=Cc3ccccc3N2CC)sc2ccccc21
- EC50 (HEK293 [17]): 2.17 µM (active)
- IC50 (HEK293 [18]): 1.96 µM (active)
- IC50 (HEK293 [19]): 11.1 µM (active)
- EC50 [9]: < 0.1 µM (active)
- EC50 [10]: > 60 µM (not active)
- EC50 [20]: 7.5 µM (active)
- IC50 [16]: > 80 µM (inactive)
- EC50 (cells [21]): 0.058 µM (active)

From ChEMBL document CHEMBL1201862, “PubChem BioAssay data set” (2004)
